Measurements reported in paper PMC12508576, “Implementing a trilineage differentiation in the ReproTracker assay for improved teratogenicity assessment” (Frontiers in Toxicology, 2025).
Like-named read-outs stand apart in the source and are kept apart here.

Assays:
[1] = system: hiPSCs differentiating into neural rosette-like cells
Protocol: (§1) Prior to differentiation, the cells were harvested and dissociated into single cells using Gibco™ TrypLE™ Select (ThermoFisher Scientific; Bleiswijk, Netherlands) for 5 min at 37 °C. Cells were seeded in Matrigel™-coated 24-well plates (ThermoFisher Scientific) in mTeSR™1 containing RevitaCell™ Supplement (ThermoFisher Scientific). […] The cells were cultured in this medium until D3. From D3 until the end of the differentiation protocol (D13) (one-step protocol), cells were cultured in N2B27 medium without ROCK inhibitor or LDN193189. In the case of the replating protocol, cells were replated at D7 and grown in the same medium until day 13. At the end of the differentiation, morphology of the cells was assessed using an Operetta CLS (Revvity) instrument. The expected morphology for each of the lineages, to ensure data acceptance and correct differentiations, is further described in Section 2.9 of the methods section. The trilineage differentiation was replicated in 96-well plates (ThermoFisher Scientific and Revvity Phenoplate) using the same differentiation protocols with an adapted number of cells for the seeding. And termination at D14.
(§2) Cells were harvested, and total RNA was isolated using the Maxwell® RSC simply RNA Cells Kit (cat. no.: #AS1390; Promega) on a Maxwell automated purification instrument (Maxwell RSC 48; Promega). […] Each individual primer was paired with its corresponding fluorophore and quencher and adjusted accordingly depending on gene abundance. Primer and probe sequences are described in Supplementary Table S1.
(§3) Data acceptance was based on the appropriate expression of the assessed biomarker genes in the differentiated populations, at appropriate times during differentiation. Failure to observe the expected temporal expression of key, lineage-specific biomarkers, during the cell fate choices associated with each differentiation protocol, would result in the experiment being invalidated.
(§4) To follow morphological changes throughout the hepatocyte and neural differentiation protocol, brightfield images of the cells were acquired after each medium refresh using an iRiS digital cell imaging microscope (Logos Biosystems) or an Operetta CLS (Revvity) instrument. Images were scored based on visual assessment. Cardiac contractability of cardiomyocytes was evaluated visually using an iRiS digital cell imaging microscope (Logos Biosystems).
(§5) Morphologically, cardiomyocytes are expected to group in fiber-like 3D structures that distribute throughout the entire plate. Aside from morphology, an additional criterion for cardiomyocyte differentiation in each experimental setup is for the contracting mature cardiomyocyte cultures exposed to solvent controls, to reach 75%. […] Neural rosettes are recognized by well-defined cell boundaries and multi-layered cultures. Functional/morphological assessment was completed independently from biomarker data analyses. Morphology scores were confirmed by a second person. Failure to observe the anticipated cell morphology/functionality throughout differentiation would result in invalidation of the experiment. Disruption in the morphology of cardiomyocytes is described as a lack of 3D-fibre-like structures in the cultures as well as a clear lack of contractions. Morphologically aberrant hepatocytes are characterized by a lack of polygonal structures with smaller cytoplasm that in the control cultures and the formation of dark cell-dense structures, commonly indicative of clumps of dead cells with big empty spaces between cell colonies.

[2] = system: hiPSCs differentiating into hepatocyte-like cells; conditions: lineage call; footnote b: previously published data; ref Jamalpoor et al., 2022; cited from earlier work
[3] = system: hiPSCs trilineage differentiation (cardiomyocytes, hepatocytes, neural rosette-like cells); conditions: based on effects on cardiomyocytes and/or hepatocytes only; ref Jamalpoor et al., 2022; cited from earlier work
[4] = read-out: Human therapeutic cmax, Table 1 (R3 I (2021), Schulz et al. (2020) and others); cited from earlier work
[5] = system: hiPSCs trilineage differentiation (cardiomyocytes, hepatocytes, neural rosette-like cells); experiment: ReproTracker trilineage differentiation, overall teratogenicity prediction; conditions: for LOAEL compared with respective human therapeutic Cmax: Figure 4; for ReproTracker results LOAEL: lowest tested concentration with significant decrease of at least one biomarker, trilineage assay, 'N.d. up to x' given as > x
Text: (§6) In ReproTracker, teratogenicity prediction of test compounds is based on a Weight of Evidence (WoE) approach, which considers both the significant decrease in biomarker expression and the morphological/functional changes following exposure to test compounds throughout differentiation assays.
(§7) This threshold, for any given biomarker, is defined as the average minus one time the standard deviation (SD) of the biomarker expression levels in solvent-exposed control cultures throughout the experiment. Reduced expression of the selected biomarkers below the set threshold in a concentration-dependent manner, upon exposure to a minimum of 2 consecutive non-cytotoxic concentrations would be considered significant (noted as +). A decrease in expression below the threshold without a clear dose-response would lead to an equivocal classification (noted as (+)). An increase in expression or a lack of response would be considered negative (noted as -). Disruption of morphology/functionality of the cultures upon compound exposure at the two highest tested concentrations in all biological replicates is considered as a morphological disruption (noted as +). Absence of significant effects results in a negative score (noted as -).
(§8) For each differentiation assay, the expression of two biomarkers and a morphological/functional read-out are considered. In the hepatocyte and cardiomyocyte differentiation, FOXA2 and BMP4 are considered germ-layer-specific biomarkers, while AFP and MYH6 are considered cell-specific biomarkers, respectively. When applying the WoE approach, the cell-specific biomarkers in hepatocyte and cardiomyocyte differentiation are given higher weight compared to the germ-layer specific biomarkers and morphology/functionality. For the neural differentiation, both PAX6 and NESTIN are given equal weight as they are considered cell-specific markers. In this case, both biomarkers are given higher weight than the morphological read-out.
(§9) Every measurement/observation is assigned a score (positive, negative, or equivocal). […] In the ReproTracker assay, a compound is identified as a teratogen if it receives a positive score in at least one of the trilineage differentiation assays (cardiomyocyte, hepatocyte, or neural differentiation). […] If neither biomarker expression levels nor morphology/functionality are affected in any of the differentiation assays, the response is considered negative.

[6] = system: hiPSCs differentiating into cardiomyocyte-like cells; experiment: ReproTracker cardiomyocyte differentiation assay
Protocol: as §1, §2, §3, §4, §5

[7] = system: hiPSCs differentiating into hepatocyte-like cells; experiment: ReproTracker hepatocyte differentiation assay
Protocol: as §1, §2, §3, §4, §5

human = conditions: Table 1 (R3 I (2021), Schulz et al. (2020) and others); cited from earlier work
undifferentiated hiPSCs [8] = system: undifferentiated hiPSCs; parameters: method as in Jamalpoor et al., 2022; conditions: lowest concentration that induced a maximum of 20% cytotoxicity in hiPSCs; dose-range finding previously published; ref Jamalpoor et al., 2022; cited from earlier work
[9] = system: hiPSCs differentiating into cardiomyocyte-like cells; conditions: lineage call; footnote b: previously published data; ref Jamalpoor et al., 2022; cited from earlier work
[10] = system: hiPSCs differentiating into neural rosette-like cells; experiment: Neural rosette differentiation, replating protocol, PAX6/NESTIN immunostaining; type: cell-based, human; conditions: for PAX6 protein levels: D13, non-cytotoxic concentrations; for NESTIN protein levels: D13, tacrolimus: highest tested concentration; for NESTIN localization: D13
Protocol: as §1
For neural rosette-like cells’ imaging, cells were washed with PBS and subsequently, cells were fixed using 4% paraformaldehyde in PBS. Permeabilization was performed using 0.1% Triton-X in PBS for 10 min at room temperature. Cells were blocked using 10% donkey serum diluted in PBS +0.1% Tween20 for 10 more minutes. Incubation with primary antibody overnight at 4 °C was performed to stain the cells. The cells were washed 3 times with PBS +0.1% Tween20 and incubated with a secondary antibody in PBS for 1 h at room temperature. Cellular nuclei were stained using Hoechst H33342 (CAS# […], Sigma Aldrich in a 1:5000 dilution). Imaging was done using an Operetta CLS (Revvity) instrument. Primary and secondary antibodies’ concentrations are described in Supplementary Table S2.
To quantify PAX6-and NESTIN-positive cells, Hoechst-stained nuclei were selected based on their fluorescent signal above the background. Cells were also excluded if touching the edge of the fields of view. Also, size exclusion was applied to avoid clustered nuclei being counted as single objects. Fluorescence measurements of PAX6 were performed within the defined nuclei and intracellularly for NESTIN. Then, a minimal fluorescence threshold was defined, resulting in the selection of PAX6-positive cells and NESTIN-positive cells. Finally, the percentages of PAX6-and NESTIN-positive cells were calculated using Revvity Harmony™ Software.
The compounds were tested in both the replating and the one-step protocols. Due to the nature of the protocols, teratogenicity prediction of the compounds was performed based on quantification of PAX6 and NESTIN-positive cells at D13 in the replating protocol or on a significant reduction in the biomarker gene expression at D7 and D13, as well as qualitative morphological analysis at D13 in the one-step protocol.

[11] = system: hiPSCs trilineage differentiation (cardiomyocytes, hepatocytes, neural rosette-like cells); conditions: human
Text: as §6, §7, §8, §9

undifferentiated hiPSCs [12] = experiment: Concentration-range selection and cytotoxicity assessment (AlamarBlue); conditions: lowest concentration that induced a maximum of 20% cytotoxicity in hiPSCs, 7 days
Protocol: In short, hiPSCs were exposed to 20 consecutive concentrations of the test compounds using 1 mM or the maximum soluble concentration as the top concentration. Test compounds were added to the medium prior to the refreshes at D0 and D3. Cytotoxicity was estimated at D7; upon completion of the experiments, cells were incubated with resazurin solution (0.01 mg/mL in PBS) and measured absorbance (excitation 530 nm and emission 590 nm). Results were normalized against vehicle controls (0.1% v/v DMSO).
All compounds were tested at five consecutive concentrations in two-fold dilution steps. The top concentration was determined as the lowest concentration that induced a maximum of 20% cytotoxicity in the concentration range finding experiments. Compounds were then diluted 2-fold using serial dilutions.
Data acceptance for dose-range finding experiments was based on the response to positive and negative assay controls, and compound solubility and cytotoxicity. […] Concentrations of compound(s) inducing cytotoxicity and therefore reducing cell survival below 80% were excluded from further testing in differentiation assays.
Thus, to determine cytotoxicity of the test compounds, undifferentiated hiPSCs were exposed to 20 consecutive concentrations at 2-fold dilutions for 7 days. The lowest concentration that induced a maximum of 20% cytotoxicity in the concentration range finding experiment was applied as top concentration for the differentiation experiments.

[13] = lineage call (positive/equivocal/negative)

Row | Structure (SMILES) | ReproTracker results Neural rosette-like cells [1] | ReproTracker results Cardiomyocyte-like cells [6] | ReproTracker results Hepatocyte-like cells [7] | NESTIN gene expression at D13 [1] | PAX6 gene expression at D7 [1] | morphology of neural rosette-like cells [1] | NESTIN protein levels [10] | Cmax [4] [nM] | ReproTracker results LOAEL [5] | top concentration for the differentiation experiments (undifferentiated hiPSCs [8]) [µM] | PAX6 protein levels [10] | other results
1 | COc1ccc([C@@H]2Sc3ccccc3N(CCN(C)C)C(=O)[C@@H]2OC(C)=O)cc1 [Diltiazem] | Positive |  |  |  |  |  |  | 60 to 300 | ≤7.8 µM |  |  | ReproTracker results Hepatocyte-like cells [2]: Positive; LOAEL before inclusion of the neural differentiation readout [3]: 31 µM; LOAEL compared with respective human therapeutic Cmax [5]: higher; ReproTracker results LOAEL ([5]; listed as diltiazem): ≤ 7.8 µM
2 | CO [Methanol] | Negative | Negative | Negative |  |  |  |  | 98700 | N.d. up to 1000 µM |  |  | In vivo classification H (human): NT (presumed)
3 | [CH3][Hg][Cl] [Methylmercury] |  |  |  |  |  |  |  | 1 to 30 | N.d. up to 0.31 µM | 0.3 |  | ReproTracker results Neural rosette-like cells [1, 13]: Negative; ReproTracker results Cardiomyocyte-like cells [9]: Negative; ReproTracker results Hepatocyte-like cells [2]: Negative
4 | Nc1cccc2c1C(=O)N(C1CCC(=O)NC1=O)C2=O (stereo not shown) [Pomalidomide] |  |  |  |  |  |  |  | 300 to 400 | ≤12.5 µM |  |  | ReproTracker results Cardiomyocyte-like cells [6, 13]: Positive; ReproTracker results Hepatocyte-like cells [7, 13]: Positive; ReproTracker results Neural rosette-like cells [1, 13]: Positive; In vivo classification H (human): T (presumed); LOAEL compared with respective human therapeutic Cmax [5]: higher

More lines, main results first:

Row | ReproTracker results Neural rosette-like cells [1] | ReproTracker results Cardiomyocyte-like cells [6] | ReproTracker results Hepatocyte-like cells [7] | NESTIN gene expression at D13 [1] | PAX6 gene expression at D7 [1] | morphology of neural rosette-like cells [1] | NESTIN protein levels [10] | Structure (SMILES) | Cmax [4] [nM] | ReproTracker results LOAEL [5] | top concentration for the differentiation experiments (undifferentiated hiPSCs [8]) [µM] | PAX6 protein levels [10] | other results
5 | Negative | Negative | Negative | no effect | no effect | no effect | no effect | O=C1NS(=O)(=O)c2ccccc21 [Saccharin] |  | N.d. up to 250 µM | 250 | no effect | 
6 | Positive | Equivocal | Positive | downregulated | downregulation | disrupted | increased | C=CC[C@@H]1/C=C(\C)C[C@H](C)C[C@H](OC)[C@H]2O[C@@](O)(C(=O)C(=O)N3CCCC[C@H]3C(=O)O[C@H](/C(C)=C/[C@@H]3CC[C@@H](O)[C@H](OC)C3)[C@H](C)[C@@H](O)CC1=O)[C@H](C)C[C@@H]2OC [Tacrolimus] | 0.6 to 30 |  | 7.81 | concentration-dependent decrease | NGN2 gene expression [1]: no significant effect; OTX2 gene expression [1]: no significant effect; PAX6 gene expression at D13 [1]: increasing; SOX1 gene expression [1]: no significant effect; NESTIN localization [10]: affecting; LOAEL compared with respective human therapeutic Cmax [11]: higher; ReproTracker results LOAEL [11]: ≤0.2 µM
7 | Positive | Positive | Positive | downregulated | downregulation | disrupted | increasing | CC1=C(/C=C/C(C)=C/C=C/C(C)=C/C(=O)O)C(C)(C)CCC1 [Tretinoin (Retinoic acid)] | 1300 |  |  | significantly decreased | NESTIN gene expression at D7 [1]: increased; OTX2 gene expression [1]: downregulation; PAX6 gene expression at D13 [1]: downregulation; effect at the highest tested concentration in the replating protocol ([10]; 5 µM): complete cell death; NESTIN localization [10]: disrupted; LOAEL compared with respective human therapeutic Cmax [11]: equal to or below; ReproTracker results LOAEL [11]: ≤0.3 µM; top concentration for the differentiation experiments (undifferentiated hiPSCs [12]): 5 µM
